Data taken from the NIST ThermoML archive (doi:10.1016/j.fluid.2015.12.048).
Numbers after ± are expanded uncertainties.

Assays:
[1] = Molar enthalpy of transition or fusion; settings: Crystal; DSC
[2] = Crystal

Row | Molar enthalpy of transition or fusion [1] [kcal/mol] | Normal melting temperature ([2]; DTA) [°C] | Normal melting temperature ([2]; visual observation) [°C] | SMILES
1 | 4.19 ± 0.103 | 49.7 ± 0.4 | 50.0 ± 0.4 | Cc1ccc(C(C)C)c(O)c1 [3-methyl-6-isopropylphenol]
2 | 3.07 ± 0.086 | 43.6 ± 0.4 | 42.8 ± 0.4 | CC(C)[C@@H]1CC[C@@H](C)C[C@H]1O [L-menthol]
3 | – | -15.0 ± 0.4 | -15.0 ± 0.4 | OCc1ccccc1 [benzenemethanol]
4 | – | 7.0 ± 0.4 | 7.0 ± 0.4 | CCCCCCCCCCO [decan-1-ol]
